Reference: PMC11040352, “CD38‐Specific Gallium‐68 Labeled Peptide Radiotracer Enables Pharmacodynamic Monitoring in Multiple Myeloma with PET” (Advanced Science, 2024)
Where two headings read alike, the source gives them in different places.

Test: Ex vivo biodistribution in mice with MM1S tumor xenografts
Conditions: both sexes, NSG, mouse; for tissue uptake at 5 min: 5 min p.i.; for tissue uptake at 0.5 h: 30 min p.i.; for tissue uptake at 1 h: 60 min p.i.; for tissue uptake at 1.5 h: 90 min p.i.; for tissue uptake at 2 h: 120 min p.i.
Procedure: Animal studies were performed under Johns Hopkins University Animal Care and Use Committee (ACUC‐approved protocol (Principal investigator: Sridhar Nimmagadda, Ph.D. and Protocol number M021M175). Male and female NSG mice (5‐6 weeks old) were used to establish xenografts by administering 3 million cells (50% Corning Matrigel) subcutaneously to form various tumor models within 3–4 weeks. Imaging or biodistribution studies (n = 3–5) were conducted on mice with tumor volumes of 100–200 mm^3. Disseminated tumor models were developed by injecting 4–5 million cells in saline intravenously for MOLP8 and MM1S‐Luc models (n = 4–5). Luciferase expressing MM1S cell line (MM1S‐Luc) was used to monitor cancer cell dissemination in the body. Tumor establishment was confirmed by injecting D‐Luciferin intraperitoneally (150 mg kg^−1) and imaged mice after 10 min in IVIS bioluminescence imaging system. Bone marrow tumors were ready for imaging after 25–30 d of implantation.
Mice with 100–200 mm^3 tumor volume were used for ex vivo biodistribution studies. For radiotracer pharmacokinetics studies, mice with MOLP8 tumor xenografts received ≈80 µCi (2.96 MBq) [^68Ga]Ga‐AJ206 and were sacrificed at pre‐determined time points (5, 30, 60 and 120 min). Similarly, for dosimetry study, mice with MM1S tumor xenografts received ≈80 µCi (2.96 MBq) of [^68Ga]Ga‐AJ206 and were sacrificed at pre‐determined time points (5, 30, 60, 90 and 120 min). All other mice were injected with ≈50µCi (1.85 MBq) [^68Ga]Ga‐AJ206 and were sacrificed at 60 min. The selected tissues were collected, weighed, counted, and their %ID g^−1 values calculated for biodistribution analysis. The tissues included blood, muscle, tumor, thymus, heart, lung, liver, pancreas, stomach, small intestine, large intestine, spleen, adrenals, kidney, bladder, femur, and brain.

[1] = adrenals, 80 µCi, MM1S xenograft mice, read-out: uptake in adrenals
[2] = bladder, 80 µCi, MM1S xenograft mice, read-out: uptake in bladder
[3] = blood, 80 µCi, total radioactivity, MM1S xenograft mice, read-out: uptake in blood
[4] = brain, 80 µCi, MM1S xenograft mice, read-out: uptake in brain
[5] = femur, 80 µCi, MM1S xenograft mice, read-out: uptake in femur
[6] = heart, 80 µCi, total radioactivity, MM1S xenograft mice, read-out: uptake in heart
[7] = kidney, 80 µCi, MM1S xenograft mice, read-out: uptake in kidney
[8] = large intestine (with contents), 80 µCi, MM1S xenograft mice, read-out: uptake in large intestine (with contents)
[9] = liver, 80 µCi, total radioactivity, MM1S xenograft mice, read-out: uptake in liver
[10] = lung, 80 µCi, total radioactivity, MM1S xenograft mice, read-out: uptake in lung
[11] = muscle, 80 µCi, MM1S xenograft mice, read-out: uptake in muscle

CC[C@H](C)[C@@H]1NC(=O)[C@@H]2CCCN2C(=O)[C@H](Cc2ccccc2)NC(=O)[C@H](CC(=O)O)NC(=O)[C@H](C)NC(=O)[C@@H]2CSCc3cc(cc(c3)CSC[C@H](NC(=O)[C@H](C)NC(=O)CCOCCOCCOCCNC(=O)CN3CCN(CC(=O)O)CCN(CC(=O)O)CC3)C(=O)N[C@@H](C(C)C)C(=O)N3CCC[C@H]3C(=O)N2)CSC[C@@H](C(N)=O)NC(=O)[C@H](Cc2ccc(O)cc2)NC(=O)[C@H](Cc2c[nH]c3ccccc23)NC1=O [[^68Ga]Ga‐AJ206, metal not drawn]
tissue uptake at 5 min [1]: 5.07 ± 0.11 %ID/g
tissue uptake at 0.5 h [1]: 2.08 ± 0.38 %ID/g
tissue uptake at 1 h [1]: 0.59 ± 0.06 %ID/g
tissue uptake at 1.5 h [1]: 0.44 ± 0.1 %ID/g
tissue uptake at 2 h [1]: 0.57 ± 0.14 %ID/g
tissue uptake at 5 min [2]: 9.35 ± 1.87 %ID/g
tissue uptake at 0.5 h [2]: 4.51 ± 0.93 %ID/g
tissue uptake at 1 h [2]: 0.75 ± 0.08 %ID/g
tissue uptake at 1.5 h [2]: 1.23 ± 0.1 %ID/g
tissue uptake at 2 h [2]: 0.9 ± 0.37 %ID/g
tissue uptake at 1 h (blood, 2 mg/kg, MM1S xenograft mice with blocking dose (2 mg kg^−1 AJ206), read-out: uptake in blood): 2.17 ± 1.17 %ID/g
tissue uptake at 2 h (blood, 80 µCi, MM1S xenograft mice, read-out: uptake in blood): 0.33 ± 0.07 %ID/g
tissue uptake at 5 min [3]: 20.7 ± 1.68 %ID/g
tissue uptake at 0.5 h [3]: 2.95 ± 0.37 %ID/g
tissue uptake at 1 h [3]: 0.75 ± 0.29 %ID/g
tissue uptake at 1.5 h [3]: 0.75 ± 0.24 %ID/g
tissue uptake at 5 min [4]: 0.44 ± 0.07 %ID/g
tissue uptake at 0.5 h [4]: 0.21 ± 0.12 %ID/g
tissue uptake at 1 h [4]: 0.06 ± 0.03 %ID/g
tissue uptake at 1.5 h [4]: 0.03 ± 0.01 %ID/g
tissue uptake at 2 h [4]: 0.02 ± 0.01 %ID/g
tissue uptake at 1 h (femur, 2 mg/kg, MM1S xenograft mice with blocking dose (2 mg kg^−1 AJ206), read-out: uptake in femur): 0.25 ± 0.09 %ID/g
tissue uptake at 5 min [5]: 3.37 ± 0.31 %ID/g
tissue uptake at 0.5 h [5]: 0.86 ± 0.06 %ID/g
tissue uptake at 1 h [5]: 0.33 ± 0.12 %ID/g
tissue uptake at 1.5 h [5]: 0.28 ± 0.05 %ID/g
tissue uptake at 2 h [5]: 0.09 ± 0.02 %ID/g
tissue uptake at 1 h (heart, 2 mg/kg, MM1S xenograft mice with blocking dose (2 mg kg^−1 AJ206), read-out: uptake in heart): 0.33 ± 0.03 %ID/g
tissue uptake at 5 min [6]: 6.38 ± 0.42 %ID/g
tissue uptake at 0.5 h [6]: 1 ± 0.15 %ID/g
tissue uptake at 1 h [6]: 0.29 ± 0.03 %ID/g
tissue uptake at 1.5 h [6]: 0.35 ± 0.08 %ID/g
tissue uptake at 2 h [6]: 0.16 ± 0.01 %ID/g
tissue uptake at 1 h (kidney, 2 mg/kg, MM1S xenograft mice with blocking dose (2 mg kg^−1 AJ206), read-out: uptake in kidney): 15.9 ± 1.12 %ID/g
tissue uptake at 5 min [7]: 31.5 ± 4.15 %ID/g
tissue uptake at 0.5 h [7]: 21.6 ± 2.02 %ID/g
tissue uptake at 1 h [7]: 14.1 ± 0.57 %ID/g
tissue uptake at 1.5 h [7]: 13.2 ± 1.59 %ID/g
tissue uptake at 2 h [7]: 9.39 ± 1.5 %ID/g
tissue uptake at 5 min [8]: 3.11 ± 0.38 %ID/g
tissue uptake at 0.5 h [8]: 0.75 ± 0.04 %ID/g
tissue uptake at 1 h [8]: 0.29 ± 0.03 %ID/g
tissue uptake at 1.5 h [8]: 0.27 ± 0.05 %ID/g
tissue uptake at 2 h [8]: 0.27 ± 0.19 %ID/g
tissue uptake at 1 h (liver, 2 mg/kg, MM1S xenograft mice with blocking dose (2 mg kg^−1 AJ206), read-out: uptake in liver): 1.45 ± 0.26 %ID/g
tissue uptake at 5 min [9]: 30.3 ± 3.51 %ID/g
tissue uptake at 0.5 h [9]: 3.64 ± 0.31 %ID/g
tissue uptake at 1 h [9]: 1.38 ± 0.04 %ID/g
tissue uptake at 1.5 h [9]: 1.16 ± 0.08 %ID/g
tissue uptake at 2 h [9]: 0.73 ± 0.1 %ID/g
tissue uptake at 1 h (lung, 2 mg/kg, MM1S xenograft mice with blocking dose (2 mg kg^−1 AJ206), read-out: uptake in lung): 0.94 ± 0.09 %ID/g
tissue uptake at 5 min [10]: 10.2 ± 4.52 %ID/g
tissue uptake at 0.5 h [10]: 3.43 ± 0.5 %ID/g
tissue uptake at 1 h [10]: 0.67 ± 0.07 %ID/g
tissue uptake at 1.5 h [10]: 0.95 ± 0.18 %ID/g
tissue uptake at 2 h [10]: 0.4 ± 0.04 %ID/g
tissue uptake at 1 h (muscle, 2 mg/kg, MM1S xenograft mice with blocking dose (2 mg kg^−1 AJ206), read-out: uptake in muscle): 0.21 ± 0.07 %ID/g
tissue uptake at 5 min [11]: 1.96 ± 0.28 %ID/g
tissue uptake at 0.5 h [11]: 0.55 ± 0.09 %ID/g
